Assays:
Test in all cases: KINOMEscan competition binding
Details in all cases: compound 10.0 µM
[1] = biological target: ACVR2A (human) (UniProt P27037)
[2] = biological target: BRSK2 (human) (UniProt Q8IWQ3)
[3] = biological target: CDC42BPB (human) (UniProt Q9Y5S2)
[4] = biological target: CDK16 (human) (UniProt Q00536)
[5] = biological target: CDKL3 (human) (UniProt Q8IVW4)
[6] = biological target: CSNK1E (human) (UniProt P49674)
[7] = biological target: EPHA3 (human) (UniProt P29320)
[8] = biological target: EPHB1 (human) (UniProt P54762)
Sequence of EPHB1 (human) (P54762 whole entry, looked up): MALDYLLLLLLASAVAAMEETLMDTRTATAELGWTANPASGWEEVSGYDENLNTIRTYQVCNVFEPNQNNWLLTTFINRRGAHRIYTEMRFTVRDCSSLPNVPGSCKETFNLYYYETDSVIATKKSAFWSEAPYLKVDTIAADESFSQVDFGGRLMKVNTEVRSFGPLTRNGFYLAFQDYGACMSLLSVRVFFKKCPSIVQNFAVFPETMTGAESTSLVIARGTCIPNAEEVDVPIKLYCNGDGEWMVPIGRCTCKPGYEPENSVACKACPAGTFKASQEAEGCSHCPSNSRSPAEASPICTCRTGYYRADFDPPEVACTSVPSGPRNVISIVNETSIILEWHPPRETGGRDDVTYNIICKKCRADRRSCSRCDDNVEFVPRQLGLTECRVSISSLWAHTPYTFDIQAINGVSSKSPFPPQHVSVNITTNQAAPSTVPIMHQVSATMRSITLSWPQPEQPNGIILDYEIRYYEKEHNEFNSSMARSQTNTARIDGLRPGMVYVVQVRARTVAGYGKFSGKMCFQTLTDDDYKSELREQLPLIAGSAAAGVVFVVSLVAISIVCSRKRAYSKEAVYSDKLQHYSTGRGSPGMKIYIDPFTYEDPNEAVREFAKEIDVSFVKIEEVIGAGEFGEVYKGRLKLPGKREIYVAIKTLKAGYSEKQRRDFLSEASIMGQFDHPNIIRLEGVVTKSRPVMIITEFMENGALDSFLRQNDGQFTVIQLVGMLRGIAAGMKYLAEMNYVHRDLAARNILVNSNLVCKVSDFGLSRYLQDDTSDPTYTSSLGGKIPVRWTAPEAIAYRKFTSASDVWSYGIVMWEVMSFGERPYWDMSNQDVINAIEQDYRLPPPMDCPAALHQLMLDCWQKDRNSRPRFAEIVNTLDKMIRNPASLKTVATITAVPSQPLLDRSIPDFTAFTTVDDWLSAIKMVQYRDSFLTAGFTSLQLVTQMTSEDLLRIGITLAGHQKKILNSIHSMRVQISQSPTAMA

[9] = biological target: FGR (human) (UniProt P09769)
[10] = system: FLT3 (human), P36888 [D835Y]
[11] = biological target: GAK (human) (UniProt O14976)
Sequence of GAK (human) (O14976 whole entry, looked up): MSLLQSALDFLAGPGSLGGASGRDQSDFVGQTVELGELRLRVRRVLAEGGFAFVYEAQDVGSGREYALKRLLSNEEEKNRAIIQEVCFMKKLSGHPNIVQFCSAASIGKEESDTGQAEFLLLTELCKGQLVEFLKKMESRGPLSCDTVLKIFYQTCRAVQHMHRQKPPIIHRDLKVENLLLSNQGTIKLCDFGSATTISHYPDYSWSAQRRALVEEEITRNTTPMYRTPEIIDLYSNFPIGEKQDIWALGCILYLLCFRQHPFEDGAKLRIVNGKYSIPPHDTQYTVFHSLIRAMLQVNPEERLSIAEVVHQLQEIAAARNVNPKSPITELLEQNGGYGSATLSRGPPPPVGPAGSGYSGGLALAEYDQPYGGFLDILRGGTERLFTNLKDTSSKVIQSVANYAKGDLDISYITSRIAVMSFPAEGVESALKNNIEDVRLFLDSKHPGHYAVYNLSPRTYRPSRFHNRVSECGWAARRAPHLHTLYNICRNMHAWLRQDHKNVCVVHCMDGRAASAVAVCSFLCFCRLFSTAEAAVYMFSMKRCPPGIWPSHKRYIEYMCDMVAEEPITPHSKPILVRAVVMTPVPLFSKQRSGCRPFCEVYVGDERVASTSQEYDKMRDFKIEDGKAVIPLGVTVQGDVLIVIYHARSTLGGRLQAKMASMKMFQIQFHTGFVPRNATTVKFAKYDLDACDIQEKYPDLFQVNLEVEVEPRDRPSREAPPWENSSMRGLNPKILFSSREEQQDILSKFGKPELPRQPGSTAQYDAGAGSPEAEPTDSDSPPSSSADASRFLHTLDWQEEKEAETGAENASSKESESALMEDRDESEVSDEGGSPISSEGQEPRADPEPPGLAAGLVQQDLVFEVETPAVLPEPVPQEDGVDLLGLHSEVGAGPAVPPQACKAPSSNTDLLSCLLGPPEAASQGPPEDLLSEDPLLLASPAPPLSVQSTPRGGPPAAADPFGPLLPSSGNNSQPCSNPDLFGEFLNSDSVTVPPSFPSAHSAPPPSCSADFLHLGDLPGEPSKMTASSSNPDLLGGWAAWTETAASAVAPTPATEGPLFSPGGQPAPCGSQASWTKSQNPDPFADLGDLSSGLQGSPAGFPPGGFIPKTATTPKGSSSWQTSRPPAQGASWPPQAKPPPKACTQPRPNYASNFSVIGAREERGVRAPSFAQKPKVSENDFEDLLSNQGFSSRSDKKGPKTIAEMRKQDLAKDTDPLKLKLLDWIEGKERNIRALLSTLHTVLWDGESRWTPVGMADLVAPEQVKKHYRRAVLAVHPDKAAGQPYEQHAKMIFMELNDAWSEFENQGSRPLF

[12] = biological target: GSK3A (human) (UniProt P49840)
[13] = biological target: HIPK1 (human) (UniProt Q86Z02)
[14] = biological target: IKBKE (human) (UniProt Q14164)
[15] = biological target: KIT (human) (UniProt P10721)
Sequence of KIT (human) (P10721 whole entry, looked up): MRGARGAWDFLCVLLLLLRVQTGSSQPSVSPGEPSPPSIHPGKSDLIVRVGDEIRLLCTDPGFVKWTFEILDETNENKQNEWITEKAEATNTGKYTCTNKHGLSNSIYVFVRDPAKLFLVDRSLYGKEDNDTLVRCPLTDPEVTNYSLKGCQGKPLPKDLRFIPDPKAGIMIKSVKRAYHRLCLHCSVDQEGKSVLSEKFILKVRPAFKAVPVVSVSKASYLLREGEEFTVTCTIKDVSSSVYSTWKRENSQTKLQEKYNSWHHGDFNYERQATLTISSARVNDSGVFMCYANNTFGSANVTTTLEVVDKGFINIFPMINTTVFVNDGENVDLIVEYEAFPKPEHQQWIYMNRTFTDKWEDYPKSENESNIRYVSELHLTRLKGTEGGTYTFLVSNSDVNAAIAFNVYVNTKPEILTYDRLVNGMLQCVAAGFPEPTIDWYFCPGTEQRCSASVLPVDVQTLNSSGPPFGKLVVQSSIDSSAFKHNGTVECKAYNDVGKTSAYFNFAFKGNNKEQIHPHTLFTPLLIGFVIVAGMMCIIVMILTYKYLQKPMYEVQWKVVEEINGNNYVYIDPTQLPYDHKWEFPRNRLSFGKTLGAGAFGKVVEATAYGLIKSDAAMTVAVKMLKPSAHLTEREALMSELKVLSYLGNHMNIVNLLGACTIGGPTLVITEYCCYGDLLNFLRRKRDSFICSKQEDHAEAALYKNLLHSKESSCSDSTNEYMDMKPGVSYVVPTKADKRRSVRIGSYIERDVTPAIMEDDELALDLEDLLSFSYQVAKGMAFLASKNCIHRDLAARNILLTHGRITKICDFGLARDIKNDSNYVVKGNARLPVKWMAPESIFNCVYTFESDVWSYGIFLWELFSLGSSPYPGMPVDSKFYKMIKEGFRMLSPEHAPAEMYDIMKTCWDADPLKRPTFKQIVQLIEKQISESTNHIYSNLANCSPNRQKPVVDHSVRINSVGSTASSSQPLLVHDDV

[16] = biological target: MAP2K3 (human) (UniProt P46734)
[17] = biological target: MAP3K11 (human) (UniProt Q16584)
[18] = biological target: MAPK11 (human) (UniProt Q15759)
[19] = biological target: MAPK12 (human) (UniProt P53778)
[20] = biological target: MARK2 (human) (UniProt Q7KZI7)
[21] = biological target: MST4 (human) (UniProt Q9P289)
[22] = biological target: NEK4 (human) (UniProt P51957)
[23] = biological target: NEK6 (human) (UniProt Q9HC98)
Sequence of NEK6 (human) (Q9HC98 whole entry, looked up): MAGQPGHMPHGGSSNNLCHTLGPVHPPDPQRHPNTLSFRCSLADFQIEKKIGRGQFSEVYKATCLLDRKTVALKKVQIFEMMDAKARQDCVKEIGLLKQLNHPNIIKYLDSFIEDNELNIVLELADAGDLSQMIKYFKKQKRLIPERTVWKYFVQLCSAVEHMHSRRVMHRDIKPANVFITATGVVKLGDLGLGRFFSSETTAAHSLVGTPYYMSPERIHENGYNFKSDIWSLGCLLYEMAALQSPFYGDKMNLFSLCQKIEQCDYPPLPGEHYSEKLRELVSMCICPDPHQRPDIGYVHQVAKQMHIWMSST

[24] = biological target: NTRK1 (human) (UniProt P04629)
[25] = biological target: PDGFRA (human) (UniProt P16234)
[26] = biological target: PLK1 (human) (UniProt P53350)
[27] = biological target: PRKACA (human) (UniProt P17612)
[28] = biological target: PRKCE (human) (UniProt Q02156)
[29] = biological target: RAF1 (human) (UniProt P04049)
[30] = biological target: RIOK1 (human) (UniProt Q9BRS2)
[31] = biological target: RIPK1 (human) (UniProt Q13546)
[32] = biological target: RPS6KA2 KD2 (human) (UniProt Q15349)
[33] = biological target: SRMS (human) (UniProt Q9H3Y6)
Sequence of SRMS (human) (Q9H3Y6 whole entry, looked up): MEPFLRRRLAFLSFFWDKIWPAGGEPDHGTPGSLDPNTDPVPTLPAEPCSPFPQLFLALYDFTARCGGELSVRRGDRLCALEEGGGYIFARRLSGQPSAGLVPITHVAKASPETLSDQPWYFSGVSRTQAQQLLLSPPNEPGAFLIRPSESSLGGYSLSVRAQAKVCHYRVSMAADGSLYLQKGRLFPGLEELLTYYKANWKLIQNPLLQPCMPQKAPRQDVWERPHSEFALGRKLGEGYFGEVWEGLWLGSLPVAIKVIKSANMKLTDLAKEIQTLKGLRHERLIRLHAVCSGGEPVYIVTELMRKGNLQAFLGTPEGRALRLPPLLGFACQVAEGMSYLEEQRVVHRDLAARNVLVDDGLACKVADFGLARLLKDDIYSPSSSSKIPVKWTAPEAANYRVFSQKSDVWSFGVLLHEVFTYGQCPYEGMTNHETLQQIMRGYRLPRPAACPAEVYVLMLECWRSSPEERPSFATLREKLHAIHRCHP

[34] = biological target: STK10 (human) (UniProt O94804)
Sequence of STK10 (human) (O94804 whole entry, looked up): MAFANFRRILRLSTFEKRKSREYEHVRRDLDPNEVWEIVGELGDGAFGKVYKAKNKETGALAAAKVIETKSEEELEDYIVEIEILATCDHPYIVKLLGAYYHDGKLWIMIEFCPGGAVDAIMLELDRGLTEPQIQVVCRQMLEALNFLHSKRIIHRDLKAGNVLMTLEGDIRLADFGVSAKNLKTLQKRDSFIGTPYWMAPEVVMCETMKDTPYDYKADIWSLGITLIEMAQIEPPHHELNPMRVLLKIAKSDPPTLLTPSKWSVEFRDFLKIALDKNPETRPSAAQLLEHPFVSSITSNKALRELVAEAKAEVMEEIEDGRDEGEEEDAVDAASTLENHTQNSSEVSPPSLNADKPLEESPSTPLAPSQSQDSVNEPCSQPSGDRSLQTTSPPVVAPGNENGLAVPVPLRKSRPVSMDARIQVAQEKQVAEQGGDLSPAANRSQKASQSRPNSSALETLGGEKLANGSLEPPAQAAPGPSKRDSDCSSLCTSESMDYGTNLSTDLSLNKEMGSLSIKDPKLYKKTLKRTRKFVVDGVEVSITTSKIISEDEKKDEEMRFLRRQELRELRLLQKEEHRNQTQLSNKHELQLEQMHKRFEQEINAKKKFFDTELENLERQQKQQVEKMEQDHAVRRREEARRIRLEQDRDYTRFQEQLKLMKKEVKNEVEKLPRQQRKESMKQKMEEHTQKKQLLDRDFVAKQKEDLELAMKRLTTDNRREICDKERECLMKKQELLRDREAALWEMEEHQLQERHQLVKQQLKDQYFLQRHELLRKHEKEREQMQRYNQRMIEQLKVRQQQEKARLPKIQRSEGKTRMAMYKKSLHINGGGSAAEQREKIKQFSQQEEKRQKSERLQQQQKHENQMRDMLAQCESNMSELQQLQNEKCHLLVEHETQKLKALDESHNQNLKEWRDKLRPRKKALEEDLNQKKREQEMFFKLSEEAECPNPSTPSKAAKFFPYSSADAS

[35] = biological target: TESK1 (human) (UniProt Q15569)
[36] = biological target: TNK1 (human) (UniProt Q13470)
[37] = biological target: TXK (human) (UniProt P42681)
[38] = biological target: TYK2 JH1 catalytic (human) (UniProt P29597)
[39] = biological target: VRK2 (human) (UniProt Q86Y07)
[40] = biological target: YSK4 (human) (UniProt Q56UN5)

## N#C/C(=C1/Nc2ccccc2S1)c1ccnc(NCCc2cccnc2)n1
[1]
  kinase still bound, per cent of control: 86%
[2]
  kinase still bound, per cent of control: 100%
[3]
  kinase still bound, per cent of control: 81%
[4]
  kinase still bound, per cent of control: 44%
[5]
  kinase still bound, per cent of control: 100%
[6]
  kinase still bound, per cent of control: 60%
[7]
  kinase still bound, per cent of control: 73%
[8]
  kinase still bound, per cent of control: 100%
[9]
  kinase still bound, per cent of control: 100%
[10]
  kinase still bound, per cent of control: 53%
[11]
  kinase still bound, per cent of control: 4.6%
[12]
  kinase still bound, per cent of control: 0.6%
[13]
  kinase still bound, per cent of control: 1.2%
[14]
  kinase still bound, per cent of control: 100%
[15]
  kinase still bound, per cent of control: 31%
[16]
  kinase still bound, per cent of control: 33%
[17]
  kinase still bound, per cent of control: 93%
[18]
  kinase still bound, per cent of control: 85%
[19]
  kinase still bound, per cent of control: 13%
[20]
  kinase still bound, per cent of control: 75%
[21]
  kinase still bound, per cent of control: 100%
[22]
  kinase still bound, per cent of control: 100%
[23]
  kinase still bound, per cent of control: 100%
[24]
  kinase still bound, per cent of control: 57%
[25]
  kinase still bound, per cent of control: 100%
[26]
  kinase still bound, per cent of control: 72%
[27]
  kinase still bound, per cent of control: 100%
[28]
  kinase still bound, per cent of control: 92%
[29]
  kinase still bound, per cent of control: 100%
[30]
  kinase still bound, per cent of control: 30%
[31]
  kinase still bound, per cent of control: 100%
[32]
  kinase still bound, per cent of control: 56%
[33]
  kinase still bound, per cent of control: 2.4%
[34]
  kinase still bound, per cent of control: 100%
[35]
  kinase still bound, per cent of control: 87%
[36]
  kinase still bound, per cent of control: 46%
[37]
  kinase still bound, per cent of control: 61%
[38]
  kinase still bound, per cent of control: 22%
[39]
  kinase still bound, per cent of control: 100%
[40]
  kinase still bound, per cent of control: 3.2%

## C=CC(=O)Nc1ccc(C(=O)c2sc(Nc3ccc(N4CCN(C)CC4)cc3OC)nc2N)cc1
[1]
  kinase still bound, per cent of control: 100%
[2]
  kinase still bound, per cent of control: 72%
[3]
  kinase still bound, per cent of control: 100%
[4]
  kinase still bound, per cent of control: 67%
[5]
  kinase still bound, per cent of control: 100%
[6]
  kinase still bound, per cent of control: 66%
[7]
  kinase still bound, per cent of control: 80%
[8]
  kinase still bound, per cent of control: 98%
[9]
  kinase still bound, per cent of control: 91%
[10]
  kinase still bound, per cent of control: 23%
[11]
  kinase still bound, per cent of control: 0.8%
[12]
  kinase still bound, per cent of control: 67%
[13]
  kinase still bound, per cent of control: 15%
[14]
  kinase still bound, per cent of control: 84%
[15]
  kinase still bound, per cent of control: 78%
[16]
  kinase still bound, per cent of control: 69%
[17]
  kinase still bound, per cent of control: 100%
[18]
  kinase still bound, per cent of control: 4.1%
[19]
  kinase still bound, per cent of control: 100%
[20]
  kinase still bound, per cent of control: 78%
[21]
  kinase still bound, per cent of control: 99%
[22]
  kinase still bound, per cent of control: 97%
[23]
  kinase still bound, per cent of control: 73%
[24]
  kinase still bound, per cent of control: 78%
[25]
  kinase still bound, per cent of control: 100%
[26]
  kinase still bound, per cent of control: 45%
[27]
  kinase still bound, per cent of control: 100%
[28]
  kinase still bound, per cent of control: 81%
[29]
  kinase still bound, per cent of control: 97%
[30]
  kinase still bound, per cent of control: 37%
[31]
  kinase still bound, per cent of control: 100%
[32]
  kinase still bound, per cent of control: 0.25%
[33]
  kinase still bound, per cent of control: 66%
[34]
  kinase still bound, per cent of control: 100%
[35]
  kinase still bound, per cent of control: 100%
[36]
  kinase still bound, per cent of control: 22%
[37]
  kinase still bound, per cent of control: 100%
[38]
  kinase still bound, per cent of control: 100%
[39]
  kinase still bound, per cent of control: 96%
[40]
  kinase still bound, per cent of control: 70%

## CCN1CCN(Cc2ccc(NC(=O)c3ccc(C)c(/C=C/c4cnc5[nH]ccc5c4OC)c3)cc2C(F)(F)F)CC1
[1]
  kinase still bound, per cent of control: 100%
[2]
  kinase still bound, per cent of control: 100%
[3]
  kinase still bound, per cent of control: 65%
[4]
  kinase still bound, per cent of control: 98%
[5]
  kinase still bound, per cent of control: 4%
[6]
  kinase still bound, per cent of control: 45%
[7]
  kinase still bound, per cent of control: 4.8%
[8]
  kinase still bound, per cent of control: 0.45%
[9]
  kinase still bound, per cent of control: 0.15%
[10]
  kinase still bound, per cent of control: 2.8%
[11]
  kinase still bound, per cent of control: 2.2%
[12]
  kinase still bound, per cent of control: 100%
[13]
  kinase still bound, per cent of control: 74%
[14]
  kinase still bound, per cent of control: 94%
[15]
  kinase still bound, per cent of control: 0%
[16]
  kinase still bound, per cent of control: 68%
[17]
  kinase still bound, per cent of control: 3.6%
[18]
  kinase still bound, per cent of control: 0%
[19]
  kinase still bound, per cent of control: 40%
[20]
  kinase still bound, per cent of control: 68%
[21]
  kinase still bound, per cent of control: 18%
[22]
  kinase still bound, per cent of control: 33%
[23]
  kinase still bound, per cent of control: 100%
[24]
  kinase still bound, per cent of control: 2.5%
[25]
  kinase still bound, per cent of control: 0.15%
[26]
  kinase still bound, per cent of control: 100%
[27]
  kinase still bound, per cent of control: 100%
[28]
  kinase still bound, per cent of control: 75%
[29]
  kinase still bound, per cent of control: 0.9%
[30]
  kinase still bound, per cent of control: 0.75%
[31]
  kinase still bound, per cent of control: 0.15%
[32]
  kinase still bound, per cent of control: 42%
[33]
  kinase still bound, per cent of control: 0.7%
[34]
  kinase still bound, per cent of control: 0%
[35]
  kinase still bound, per cent of control: 15%
[36]
  kinase still bound, per cent of control: 1.4%
[37]
  kinase still bound, per cent of control: 0.7%
[38]
  kinase still bound, per cent of control: 12%
[39]
  kinase still bound, per cent of control: 92%
[40]
  kinase still bound, per cent of control: 0.2%

From the kinase profiling compilation of Christmann-Franck et al. (2016)
